Results taken from ChEMBL document CHEMBL1135453, “Inhibition of feline immunodeficiency virus (FIV) replication by DNA binding polyamides” (2002).

What was measured:
Format in all cases: functional
[1] = test system: Feline immunodeficiency virus; assay: Tested for the percentage decrease in replication of FIV-34TF10 at a concentration of 0.1 nM
[2] = test system: Feline immunodeficiency virus; assay: Effect on replication of FIV 34TF10env in chronically infected feline glial cell lines G355-5 at 1 nM conc; RT activity per ug/mL of protein concentration
[3] = test system: Feline immunodeficiency virus; assay: Effect on replication of FIV 34TF10 in chronically infected feline glial cell lines G355-5 at 0.01 nM conc; RT activity per ug/mL of protein concentration
[4] = test system: Feline immunodeficiency virus; assay: Effect on replication of FIV 34TF10 in chronically infected feline glial cell lines G355-5 at 0.1 nM conc; RT activity per ug/mL of protein concentration
[5] = test system: Feline immunodeficiency virus; assay: Effect on replication of FIV 34TF10 in chronically infected feline glial cell lines G355-5 at 0 nM conc; RT activity per ug/mL of protein concentration
[6] = test system: Feline immunodeficiency virus; assay: Effect on replication of FIV 34TF10 in chronically infected feline glial cell lines G355-5 at 10000 nM conc; RT activity per ug/mL of protein concentration
[7] = test system: Feline immunodeficiency virus; assay: Effect on replication of FIV 34TF10 in chronically infected feline glial cell lines G355-5 at 1000 nM conc; RT activity per ug/mL of protein concentration
[8] = test system: Feline immunodeficiency virus; assay: Effect on replication of FIV 34TF10 in chronically infected feline glial cell lines G355-5 at 100 nM conc; RT activity per ug/mL of protein concentration
[9] = test system: Feline immunodeficiency virus; assay: Effect on replication of FIV 34TF10 in chronically infected feline glial cell lines G355-5 at 10 nM conc; RT activity per ug/mL of protein concentration
[10] = test system: Feline immunodeficiency virus; assay: Effect on replication of FIV 34TF10 in chronically infected feline glial cell lines G355-5 at 1 nM conc; RT activity per ug/mL of protein concentration
[11] = test system: Feline immunodeficiency virus; assay: Effect on replication of FIV 34TF10env in chronically infected feline glial cell lines G355-5 at 0.01 nM conc; RT activity per ug/mL of protein concentration
[12] = test system: Feline immunodeficiency virus; assay: Effect on replication of FIV 34TF10env in chronically infected feline glial cell lines G355-5 at 0.1 nM conc; RT activity per ug/mL of protein concentration
[13] = test system: Feline immunodeficiency virus; assay: Effect on replication of FIV 34TF10env in chronically infected feline glial cell lines G355-5 at 0 nM conc; RT activity per ug/mL of protein concentration
[14] = test system: Feline immunodeficiency virus; assay: Effect on replication of FIV 34TF10env in chronically infected feline glial cell lines G355-5 at 10000 nM conc; RT activity per ug/mL of protein concentration
[15] = test system: Feline immunodeficiency virus; assay: Effect on replication of FIV 34TF10env in chronically infected feline glial cell lines G355-5 at 1000 nM conc; RT activity per ug/mL of protein concentration
[16] = test system: Feline immunodeficiency virus; assay: Effect on replication of FIV 34TF10env in chronically infected feline glial cell lines G355-5 at 100 nM conc; RT activity per ug/mL of protein concentration
[17] = test system: Feline immunodeficiency virus; assay: Effect on replication of FIV 34TF10env in chronically infected feline glial cell lines G355-5 at 10 nM conc; RT activity per ug/mL of protein concentration

SMILES: CN(C)CCCNC(=O)c1cc(NC(=O)c2cc(NC(=O)c3cc(NC(=O)c4ccccc4C(=O)O)cn3C)cn2C)cn1C
- Decrease [1]: 75%
- Reverse transcriptase activity [2]: 1600
- Reverse transcriptase activity [3]: 665
- Reverse transcriptase activity [4]: 390
- Reverse transcriptase activity [5]: 1200
- Reverse transcriptase activity [6]: 950
- Reverse transcriptase activity [7]: 480
- Reverse transcriptase activity [8]: 490
- Reverse transcriptase activity [9]: 475
- Reverse transcriptase activity [10]: 800
- Reverse transcriptase activity [11]: 2000
- Reverse transcriptase activity [12]: 1990
- Reverse transcriptase activity [13]: 1590
- Reverse transcriptase activity [14]: 1800
- Reverse transcriptase activity [15]: 2100
- Reverse transcriptase activity [16]: 1900
- Reverse transcriptase activity [17]: 1700

SMILES: Cc1nc(N)sc1C(=O)Nc1cn(C)c(C(=O)Nc2cn(C)c(C(=O)NCCCN(C)C)n2)n1
- Decrease [1]: 75%
- Reverse transcriptase activity [2]: 2000
- Reverse transcriptase activity [3]: 675
- Reverse transcriptase activity [4]: 350
- Reverse transcriptase activity [5]: 1025
- Reverse transcriptase activity [6]: 950
- Reverse transcriptase activity [7]: 500
- Reverse transcriptase activity [8]: 550
- Reverse transcriptase activity [9]: 475
- Reverse transcriptase activity [10]: 800
- Reverse transcriptase activity [11]: 2000
- Reverse transcriptase activity [12]: 1500
- Reverse transcriptase activity [13]: 2200
- Reverse transcriptase activity [14]: 2100
- Reverse transcriptase activity [15]: 1700
- Reverse transcriptase activity [16]: 1800
- Reverse transcriptase activity [17]: 1500
